From PubChem BioAssay (NCI)
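Tested at 5 concentrations; 48 h exposure; 96-well plates; endpoints linearly interpolated, else capped at highest concentration. TGI: total growth inhibition.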

How the values were obtained:
Test in all cases: growth of human tumour cells (NCI), 48 h
[1] = test system: SK-OV-3 ovarian
[2] = test system: MALME-3M melanoma
[3] = test system: OVCAR-5 ovarian
[4] = test system: RXF 393 renal
[5] = test system: SW-620 colon
[6] = test system: M19-MEL melanoma
[7] = test system: NCI-H522 lung
[8] = test system: LXFL 529 NSCLC
[9] = test system: 786-0 renal
[10] = test system: KM12 colon
[11] = test system: OVCAR-4 ovarian
[12] = test system: DLD-1 colon
[13] = test system: OVCAR-3 ovarian
[14] = test system: U251 CNS
[15] = test system: A549 NSCLC
[16] = test system: IGROV1 ovarian
[17] = test system: UO-31 renal
[18] = test system: NCI-H226 lung
[19] = test system: HOP-62 NSCLC
[20] = test system: SNB-75 CNS
[21] = test system: HOP-92 NSCLC
[22] = test system: ACHN renal
[23] = test system: LOX IMVI melanoma
[24] = test system: SK-MEL-5 melanoma
[25] = test system: UACC-257 melanoma
[26] = test system: UACC-62 melanoma
[27] = test system: A498 renal
[28] = test system: SF-268 CNS
[29] = test system: COLO 205 colon
[30] = test system: SF-295 CNS
[31] = test system: HL-60(TB) leukemia
[32] = test system: SN12C renal
[33] = test system: M14 melanoma
[34] = test system: CCRF-CEM leukemia
[35] = test system: MOLT-4 leukemia
[36] = test system: NCI-H23 lung
[37] = test system: RPMI-8226 leukemia
[38] = test system: SNB-19 CNS
[39] = test system: SK-MEL-28 melanoma
[40] = test system: TK-10 renal
[41] = test system: SK-MEL-2 melanoma
[42] = test system: EKVX NSCLC
[43] = test system: NCI-H460 lung
[44] = test system: HCC-2998 colon
[45] = test system: CAKI-1 renal
[46] = test system: SNB-78 CNS
[47] = test system: DMS 273 small cell lung
[48] = test system: KM20L2 colon
[49] = test system: SF-539 CNS
[50] = test system: RXF-631 renal
[51] = test system: OVCAR-8 ovarian
[52] = test system: DMS 114 small cell lung
[53] = test system: HCT-116 colon
[54] = test system: XF 498 CNS
[55] = test system: HOP-18 NSCLC

Question: How did the TGI [1] turn out when Cc1ccc(-c2nnc3s/c(=C\c4ccc(N(C)C)cc4)c(=O)n23)cc1 was run?
Answer: > 100 µM

Question: And the TGI [2]?
Answer: > 100 µM

Question: What about the TGI [3] of the same compound?
Answer: > 100 µM

Question: And the TGI [4]?
Answer: > 100 µM

Question: And the TGI [5]?
Answer: > 100 µM

Question: What about the TGI [6] of the same compound?
Answer: > 100 µM

Question: What about the TGI [7] of the same compound?
Answer: > 100 µM

Question: And the TGI [8]?
Answer: > 100 µM

Question: What about the TGI [9] of the same compound?
Answer: > 100 µM

Question: What about the TGI [10] of the same compound?
Answer: > 100 µM

Question: And the TGI [11]?
Answer: > 100 µM

Question: And the TGI [12]?
Answer: > 100 µM

Question: And the TGI [13]?
Answer: > 100 µM

Question: And the TGI [14]?
Answer: > 100 µM

Question: And the TGI [15]?
Answer: > 100 µM

Question: What about the TGI [16] of the same compound?
Answer: > 100 µM

Question: What about the TGI [17] of the same compound?
Answer: > 100 µM

Question: What about the TGI [18] of the same compound?
Answer: > 100 µM

Question: What about the TGI [19] of the same compound?
Answer: > 100 µM

Question: What about the TGI [20] of the same compound?
Answer: > 100 µM

Question: What about the TGI [21] of the same compound?
Answer: > 100 µM

Question: What about the TGI [22] of the same compound?
Answer: > 100 µM

Question: What about the TGI [23] of the same compound?
Answer: > 100 µM

Question: And the TGI [24]?
Answer: > 100 µM

Question: What about the TGI [25] of the same compound?
Answer: 77.5 µM

Question: What about the TGI [26] of the same compound?
Answer: > 100 µM

Question: What about the TGI [27] of the same compound?
Answer: > 100 µM

Question: What about the TGI [28] of the same compound?
Answer: > 100 µM

Question: What about the TGI [29] of the same compound?
Answer: > 100 µM

Question: What about the TGI [30] of the same compound?
Answer: > 100 µM

Question: And the TGI [31]?
Answer: > 100 µM

Question: What about the TGI [32] of the same compound?
Answer: > 100 µM

Question: And the TGI [33]?
Answer: > 100 µM

Question: And the TGI [34]?
Answer: > 100 µM

Question: And the TGI [35]?
Answer: > 100 µM

Question: And the TGI [36]?
Answer: > 100 µM

Question: And the TGI [37]?
Answer: > 100 µM

Question: And the TGI [38]?
Answer: > 100 µM

Question: And the TGI [39]?
Answer: > 100 µM

Question: What about the TGI [40] of the same compound?
Answer: > 100 µM

Question: What about the TGI [41] of the same compound?
Answer: > 100 µM

Question: What about the TGI [42] of the same compound?
Answer: > 100 µM

Question: What about the TGI [43] of the same compound?
Answer: > 100 µM

Question: And the TGI [44]?
Answer: > 100 µM

Question: What about the TGI [45] of the same compound?
Answer: > 100 µM

Question: And the TGI [46]?
Answer: > 100 µM

Question: What about the TGI [47] of the same compound?
Answer: > 100 µM

Question: And the TGI [48]?
Answer: > 100 µM

Question: What about the TGI [49] of the same compound?
Answer: > 100 µM

Question: And the TGI [50]?
Answer: > 100 µM

Question: And the TGI [51]?
Answer: > 100 µM

Question: What about the TGI [52] of the same compound?
Answer: > 100 µM

Question: What about the TGI [53] of the same compound?
Answer: > 100 µM

Question: What about the TGI [54] of the same compound?
Answer: > 100 µM

Question: And the TGI [55]?
Answer: > 100 µM
